Assay results reported in ChEMBL document CHEMBL4665836, “Overcoming β-Lactam resistance in Pseudomonas aeruginosa using non-canonical tobramycin-based antibiotic adjuvants” (2020).

Assays:
Format in all cases: functional
[1] = system: Pseudomonas aeruginosa; assay: Potentiation of imipenem-induced antibacterial activity against carbapenem-resistant Pseudomonas aeruginosa 88949 clinical isolate assessed as fold reduction in imipenem MIC at 8 uM in presence of beta-lactamase inhibitor, rele-bactam
[2] = system: Pseudomonas aeruginosa; assay: Potentiation of ceftazidime-induced antibacterial activity against carbapenem-resistant Pseudomonas aeruginosa 86052 clinical isolate assessed as fold reduction in ceftazidime MIC at 8 uM in presence of beta-lactamase inhibitor, avi-bactam
[3] = system: Pseudomonas aeruginosa; assay: Potentiation of aztreonam-induced antibacterial activity against carbapenem and colistin-resistant Pseudomonas aeruginosa 91433 clinical isolate assessed as aztreonam MIC at 8 uM by checkerboard assay (reference value: 16 ug/ml)
[4] = system: Pseudomonas aeruginosa; assay: Potentiation of imipenem-induced antibacterial activity against carbapenem-resistant Pseudomonas aeruginosa 100036 clinical isolate assessed as imipenem MIC at 8 uM by checkerboard assay (reference value: 8 ug/ml)
[5] = system: Pseudomonas aeruginosa; assay: Potentiation of aztreonam-induced antibacterial activity against carbapenem-resistant Pseudomonas aeruginosa 86052 clinical isolate assessed as fold reduction in aztreonam MIC at 8 uM in presence of beta-lactamase inhibitor, avi-bactam
[6] = system: Pseudomonas aeruginosa; assay: Potentiation of imipenem-induced antibacterial activity against carbapenem and colistin-resistant Pseudomonas aeruginosa 101243 clinical isolate assessed as imipenem MIC at 8 uM by checkerboard assay (reference value: 8 ug/ml)
[7] = system: Pseudomonas aeruginosa; assay: Potentiation of aztreonam-induced antibacterial activity against carbapenem-resistant Pseudomonas aeruginosa 260-97103 clinical isolate assessed as aztreonam MIC at 8 uM by checkerboard assay (reference value: 64 ug/ml)
[8] = system: Pseudomonas aeruginosa; assay: Potentiation of ceftazidime-induced antibacterial activity against wild type Pseudomonas aeruginosa PAO1 assessed as fold reduction in ceftazidime MIC at 8 uM
[9] = system: Pseudomonas aeruginosa; assay: Potentiation of aztreonam-induced antibacterial activity against carbapenem-resistant Pseudomonas aeruginosa 264-104354 clinical isolate assessed as aztreonam MIC at 8 uM by checkerboard assay (reference value: 32 ug/ml)
[10] = system: Pseudomonas aeruginosa; assay: Potentiation of ceftazidime-induced antibacterial activity against carbapenem and colistin-resistant Pseudomonas aeruginosa 114228 clinical isolate assessed as ceftazidime MIC at 8 uM by checkerboard assay (reference value: 8 ug/ml)
[11] = system: Pseudomonas aeruginosa; assay: Potentiation of aztreonam-induced antibacterial activity against carbapenem-resistant Pseudomonas aeruginosa 100036 clinical isolate assessed as aztreonam MIC at 8 uM by checkerboard assay (reference value: 16 ug/ml)
[12] = system: Pseudomonas aeruginosa; assay: Potentiation of imipenem-induced antibacterial activity against carbapenem-resistant Pseudomonas aeruginosa 109084 clinical isolate assessed as fold reduction in imipenem MIC at 8 uM in presence of beta-lactamase inhibitor, rele-bactam
[13] = system: Pseudomonas aeruginosa; assay: Potentiation of imipenem-induced antibacterial activity against carbapenem-resistant Pseudomonas aeruginosa PAO750 harboring mexAB-oprM/mexCD-oprJ/mexEF-oprN/mexJK/mexXY/opmH efflux deficient mutant assessed as imipenem MIC at 8 uM by checkerboard assay (reference value: 4 ug/ml)
[14] = system: Pseudomonas aeruginosa; assay: Potentiation of ceftazidime-induced antibacterial activity against carbapenem-resistant Pseudomonas aeruginosa 109084 clinical isolate assessed as ceftazidime MIC at 8 uM by checkerboard assay (reference value: 64 ug/ml)
[15] = system: Pseudomonas aeruginosa; assay: Potentiation of aztreonam-induced antibacterial activity against carbapenem-resistant Pseudomonas aeruginosa 101885 clinical isolate assessed as aztreonam MIC at 8 uM by checkerboard assay (reference value: 16 ug/ml)
[16] = system: Pseudomonas aeruginosa; assay: Potentiation of ceftazidime-induced antibacterial activity against carbapenem and colistin-resistant Pseudomonas aeruginosa 101243 clinical isolate assessed as ceftazidime MIC at 8 uM by checkerboard assay (reference value: 64 ug/ml)
[17] = system: Pseudomonas aeruginosa; assay: Potentiation of ceftazidime-induced antibacterial activity against carbapenem-resistant Pseudomonas aeruginosa 264-104354 clinical isolate assessed as ceftazidime MIC at 8 uM by checkerboard assay (reference value: 128 ug/ml)
[18] = system: Pseudomonas aeruginosa; assay: Potentiation of aztreonam-induced antibacterial activity against carbapenem-resistant Pseudomonas aeruginosa 262-101856 clinical isolate assessed as aztreonam MIC at 8 uM by checkerboard assay (reference value: 32 ug/ml)
[19] = system: Pseudomonas aeruginosa; assay: Potentiation of piperacillin-induced antibacterial activity against wild type Pseudomonas aeruginosa PAO1 assessed as piperacillin MIC at 8 uM by checkerboard assay (reference value: 8 ug/ml)
[20] = system: Pseudomonas aeruginosa; assay: Antibacterial activity against wild type Pseudomonas aeruginosa PAO1
[21] = system: Pseudomonas aeruginosa; assay: Potentiation of ceftazidime-induced antibacterial activity against carbapenem-resistant Pseudomonas aeruginosa 108590 clinical isolate assessed as ceftazidime MIC at 8 uM by checkerboard assay (reference value: 32 ug/ml)
[22] = system: Pseudomonas aeruginosa; assay: Potentiation of aztreonam-induced antibacterial activity against carbapenem-resistant Pseudomonas aeruginosa 107092 clinical isolate assessed as fold reduction in aztreonam MIC at 8 uM in presence of beta-lactamase inhibitor, avi-bactam
[23] = system: Pseudomonas aeruginosa; assay: Potentiation of ceftazidime-induced antibacterial activity against carbapenem-resistant Pseudomonas aeruginosa 262-101856 clinical isolate assessed as ceftazidime MIC at 8 uM by checkerboard assay (reference value: 16 ug/ml)
[24] = system: Pseudomonas aeruginosa; assay: Potentiation of ceftazidime-induced antibacterial activity against carbapenem and colistin-resistant Pseudomonas aeruginosa 91433 clinical isolate assessed as ceftazidime MIC at 8 uM by checkerboard assay (reference value: 4 ug/ml)
[25] = system: Pseudomonas aeruginosa; assay: Potentiation of imipenem-induced antibacterial activity against carbapenem-resistant Pseudomonas aeruginosa 101885 clinical isolate assessed as imipenem MIC at 8 uM by checkerboard assay (reference value: 4 ug/ml)
[26] = system: Pseudomonas aeruginosa; assay: Potentiation of piperacillin-induced antibacterial activity against wild type Pseudomonas aeruginosa PAO1 assessed as fold reduction in piperacillin MIC at 8 uM
[27] = system: Pseudomonas aeruginosa; assay: Antibacterial activity against Pseudomonas aeruginosa PAO750 harboring mexAB-oprM/mexCD-oprJ/mexEF-oprN/mexJK/mexXY/opmH efflux deficient mutant
[28] = system: Pseudomonas aeruginosa; assay: Potentiation of imipenem-induced antibacterial activity against carbapenem-resistant Pseudomonas aeruginosa 264-104354 clinical isolate assessed as imipenem MIC at 8 uM by checkerboard assay (reference value: 16 ug/ml)
[29] = system: Pseudomonas aeruginosa; assay: Potentiation of ceftazidime-induced antibacterial activity against carbapenem-resistant Pseudomonas aeruginosa 260-97103 clinical isolate assessed as ceftazidime MIC at 8 uM by checkerboard assay (reference value: 32 ug/ml)
[30] = system: Pseudomonas aeruginosa; assay: Potentiation of ceftazidime-induced antibacterial activity against carbapenem-resistant Pseudomonas aeruginosa PAO750 harboring and mexAB-oprM/mexCD-oprJ/mexEF-oprN/mexJK/mexXY/opmH efflux deficient mutant assessed as ceftazidime MIC at 8 uM by checkerboard assay (reference value: 0.5 ug/ml)
[31] = system: Pseudomonas aeruginosa; assay: Potentiation of imipenem-induced antibacterial activity against carbapenem and colistin-resistant Pseudomonas aeruginosa 114228 clinical isolate assessed as imipenem MIC at 8 uM by checkerboard assay (reference value: 8 ug/ml)
[32] = system: Pseudomonas aeruginosa; assay: Potentiation of aztreonam-induced antibacterial activity against carbapenem-resistant Pseudomonas aeruginosa PAO750 harboring mexAB-oprM/mexCD-oprJ/mexEF-oprN/mexJK/mexXY/opmH efflux deficient mutant assessed as aztreonam MIC at 8 uM by checkerboard assay (reference value: 0.5 ug/ml)

With `N=C(N)NC[C@H]1O[C@H](O[C@H]2[C@H](OCCCCCCCCCCCCN3CCN(c4cc5c(cc4F)c(=O)c(C(=O)O)cn5C4CC4)CC3)[C@@H](O[C@H]3O[C@H](CO)[C@@H](O)[C@H](NC(=N)N)[C@H]3O)[C@H](NC(=N)N)C[C@@H]2NC(=N)N)[C@H](NC(=N)N)C[C@@H]1O.O=C(O)C(F)(F)F.O=C(O)C(F)(F)F.O=C(O)C(F)(F)F.O=C(O)C(F)(F)F.O=C(O)C(F)(F)F.O=C(O)C(F)(F)F` the “fold change (FC)” value [1] was 16, the “fold change (FC)” value [2] was 16 and the MIC [3] was 16 µg/mL. For the same compound, the MIC [4] was 4 µg/mL, the “fold change (FC)” value [5] was 16 and the MIC [6] was 4 µg/mL. The MIC [7] was 8 µg/mL, the “fold change (FC)” value [8] was 2 and the MIC [9] was 32 µg/mL. For the same compound, the MIC [10] was 2 µg/mL, the MIC [11] was 16 µg/mL and the “fold change (FC)” value [12] was 16. For the same compound, the MIC [13] was 1 µg/mL, the MIC [14] was 32 µg/mL and the MIC [15] was 4 µg/mL. For the same compound, the MIC [16] was 16 µg/mL, the MIC [17] was 128 µg/mL and the MIC [18] was 32 µg/mL. It also gave an MIC [19] of 8 µg/mL, an MIC [20] of 32 µg/mL and an MIC [21] of 2 µg/mL. The “fold change (FC)” value [22] was 16, the MIC [23] was 16 µg/mL and the MIC [24] was 4 µg/mL. The MIC [25] was 2 µg/mL, the “fold change (FC)” value [26] was 2 and the MIC [27] was 16 µg/mL. The MIC [28] was 16 µg/mL, the MIC [29] was 16 µg/mL and the MIC [30] was 0.25 µg/mL. The MIC [31] was 1 µg/mL and the MIC [32] was 0.06 µg/mL.
For `NC[C@H]1O[C@H](O[C@H]2[C@H](OCCCCc3cn(CCCCO[C@@H]4[C@@H](O)[C@H](N)C[C@H](N)[C@H]4O[C@H]4O[C@H](CN)[C@@H](O)C[C@H]4N)nn3)[C@@H](O)[C@H](N)C[C@@H]2N)[C@H](N)C[C@@H]1O.O=C(O)C(F)(F)F.O=C(O)C(F)(F)F.O=C(O)C(F)(F)F.O=C(O)C(F)(F)F.O=C(O)C(F)(F)F.O=C(O)C(F)(F)F.O=C(O)C(F)(F)F.O=C(O)C(F)(F)F`, the “fold change (FC)” value [1] was 16, the “fold change (FC)” value [2] was 16 and the MIC [3] was 2 µg/mL. For the same compound, the MIC [4] was 4 µg/mL, the “fold change (FC)” value [5] was 16 and the MIC [6] was 8 µg/mL. The MIC [7] was 16 µg/mL, the “fold change (FC)” value [8] was 2 and the MIC [9] was 8 µg/mL. For the same compound, the MIC [10] was 1 µg/mL, the MIC [11] was 4 µg/mL and the “fold change (FC)” value [12] was 16. It also gave an MIC [13] of 2 µg/mL, an MIC [14] of 32 µg/mL and an MIC [15] of 4 µg/mL. For the same compound, the MIC [16] was 32 µg/mL, the MIC [17] was 32 µg/mL and the MIC [18] was 16 µg/mL. For the same compound, the MIC [19] was 8 µg/mL, the MIC [20] was > 128 µg/mL and the MIC [21] was 32 µg/mL. The “fold change (FC)” value [22] was 16, the MIC [23] was 16 µg/mL and the MIC [24] was 0.5 µg/mL. For the same compound, the MIC [25] was 4 µg/mL, the “fold change (FC)” value [26] was 2 and the MIC [27] was 128 µg/mL. For the same compound, the MIC [28] was 8 µg/mL, the MIC [29] was 16 µg/mL and the MIC [30] was 0.13 µg/mL. It also gave an MIC [31] of 4 µg/mL and an MIC [32] of 0.25 µg/mL.
